# Measurements: publication PMC5840332, “Disease-associated missense mutations in GluN2B subunit alter NMDA receptor ligand binding and ion channel properties” (Nature Communications, 2018)
# pIC50, pKd: −log10 of the molar value. Several values for one entry are separate records, joined by “and”; a condition that tells them apart may be missing. Equal entries are not always repeated.
# What was measured:
# [1] = molecular target: T1, GluN1–GluN2B^V618G (Homo sapiens, UniProt Q05586+Q13224, V618G); assay: Memantine block of glutamate currents in HEK293 cells (concentration–inhibition, I–V, trapping model); format: cell-based; parameters: expressed in transfected cells; host or cells: HEK293
# Procedure: (§1) To examine voltage-dependent block of NMDARs, HEK293 cells were voltage clamped at −30 mV, and currents recorded following a voltage (10 mV) step protocol from −90 to +90 mV. […] The current induced by the agonists was determined by subtracting the leak current before plotting the I–V relationship.
# (§2) To explain the block of the NMDAR we adopted a trapping based model (Table 2) whereby the antagonist can remain bound to its site (e.g. in the channel) after agonist dissociation.
# (§3) The values of k+bo(0 mV) and k+bi(0 mV) were fixed at 5 × 10^7 M^-1 s^-1. […] This allowed k−bo and δMg to be estimated independently. For the permeation model (see below), the same principle was used to define the ion binding rate (k+bi) from the inside of the channel.
# [2] = molecular target: T2, GluN1–GluN2B^N615I (Homo sapiens, UniProt Q05586+Q13224, N615I); assay: as above; format: cell-based; parameters: expressed in transfected cells; host or cells: HEK293
# Procedure: as §1, §2, §3
# [3] = molecular target: T3, GluN1–GluN2B^WT (Homo sapiens, UniProt Q05586+Q13224); assay: as above; format: cell-based; parameters: expressed in transfected cells; host or cells: HEK293; settings: for δMem, fraction of membrane potential sensed by memantine: trapping block model fit
# Procedure: as §1, §2, §3
# [4] = Memantine pKa and ionisation; format: physicochemical
# [5] = system: hippocampal neurons expressing GluN2B^N615I; assay: Evoked NMDAR-mediated EPSCs in transfected hippocampal neurons; format: cell-based, rat; settings: 30 μM memantine, 0 Mg^2+
# From the text: (§4) Dissected hippocampi were dissociated from E18 Sprague Dawley rat embryos using procedures and protocols that have been approved by the UK Home Office. They were dissociated into single cells using 0.1% w/v trypsin and serially triturated with flame-polished Pasteur pipettes. […] Neurons were transfected after 10 days in vitro (DIV) with either cDNAs for the GluN2B WT or mutants together with DsRed using Effectene (Qiagen) and recorded at 13–15 DIV.
# (§5) Cells were voltage clamped at −60 mV.
# (§6) NMDAR-mediated EPSCs were evoked by direct stimulation of single neighbouring neurons using a loose cell-attached patch electrode filled with Krebs and containing a bipolar stimulating electrode. […] For the pharmacological characterisation of NMDAR-mediated EPSCs, the selective antagonists ifenprodil (+)-hemitartrate (Santacruz biotechnology) and TCN213 (Tocris) were used.
# (§7) EPSCs were analysed offline using WinWCP (Strathclyde Electrophysiology Software, UK). Peak EPSC amplitude, the area of the EPSC (charge transfer) and EPSC decays were measured. The decay time constants (τ) were determined by fitting the EPSC decays with a double exponential function. The weighted time constant (τw) was calculated using the following equation, where A indicates the relative area of each time constant.3 τw=((A1.τ1)+(A2.τ2))∕A1+A2.
# [6] = system: hippocampal neurons expressing GluN2B^WT; assay: as above; format: cell-based, rat; settings: 30 μM memantine, 0 Mg^2+
# From the text: as §4, §5, §6, §7
# [7] = system: hippocampal neurons expressing GluN2B^V618G; assay: as above; format: cell-based, rat; settings: 300 μM memantine, 0 Mg^2+
# From the text: as §4, §5, §6, §7
# [8] = molecular target: T2, GluN1–GluN2B^N615I; assay: Mg2+ block of glutamate currents in HEK293 cells (concentration–inhibition, I–V, permeation model); format: cell-based; parameters: expressed in transfected cells; host or cells: HEK293; settings: 1 μM–10 mM Mg^2+, −60 mV
# [9] = molecular target: T3, GluN1–GluN2B^WT; assay: Mg2+ block of glutamate currents in HEK293 cells (concentration–inhibition, I–V, trapping model); format: cell-based; parameters: expressed in transfected cells; host or cells: HEK293
# [10] = molecular target: T1, GluN1–GluN2B^V618G; assay: Mg2+ block of glutamate currents in HEK293 cells (concentration–inhibition, I–V, permeation model); format: cell-based; parameters: expressed in transfected cells; host or cells: HEK293; settings: −60 mV; for Effect of external Mg^2+ on glutamate current (Mg2+ block): 1 μM–10 mM Mg^2+
# [11] = molecular target: T1, GluN1–GluN2B^V618G; assay: Ion permeability experiments in Mg2+ or Ca2+ solution, HEK293 cells; format: cell-based; parameters: expressed in transfected cells; host or cells: HEK293; settings: −60 mV
# From the text: (§8) To assess Mg^2+ permeability the external solution was altered such that Mg^2+ was the only current-carrying cation (Mg^2+ solution). […] The same result was apparent for GluN1–GluN2B^N615I (Fig. 4a; Table 1). […] To assess whether the channel mutants affected Ca^2+ permeation, we modified the external solution to make Ca^2+ the only current-carrying cation[24] (Ca^2+ solution). […] This implied a significant reduction in Ca^2+ permeation for GluN2B^N615I.
# as §5
# [12] = molecular target: T2, GluN1–GluN2B^N615I; assay: as above; format: cell-based; parameters: expressed in transfected cells; host or cells: HEK293; settings: −60 mV
# From the text: as §8, §5
# [13] = molecular target: T3, GluN1–GluN2B^WT; assay: as above; format: cell-based; parameters: expressed in transfected cells; host or cells: HEK293; settings: −60 mV
# From the text: as §8, §5
# [14] = system: NMDAR-mediated EPSCs, hippocampal neurons; assay: NMDAR-mediated EPSCs in cultured hippocampal neurons, pharmacological characterisation; format: cell-based, rat; settings: 30 μM TCN213, 13–15 DIV untransfected neurons
# Procedure: The impact of the GluN2B mutations was assessed on neuronal NMDARs by evoking network-driven NMDAR-mediated EPSCs in hippocampal neurons transfected with either wild-type or mutant GluN2B constructs. Hippocampal cultures were superfused with Krebs containing 10 μM CNQX and 20 μM bicuculline to block non-NMDA receptor and GABAA receptor-mediated currents, respectively. […] To obtain phase-locked EPSCs, a loose cell-attached patch electrode was used to serially stimulate presynaptic neurons yielding evoked EPSCs in postsynaptic neurons.
# The relative contributions of GluN2A and GluN2B subunits to NMDAR-mediated currents (at 13–15 DIV) was assessed using the selective antagonists, TCN213 (30 μM, for GluN2A) and ifenprodil (3 μM, for GluN2B).
# as §4, §5, §6, §7
# [15] = system: GluN1-GluN2A diheteromers; parameters: method as in PMID 22022974; settings: cited from earlier work
# [16] = molecular target: GluN1-GluN2B R540H (Homo sapiens, UniProt Q05586+Q13224, R540H); assay: Glutamate-activated whole-cell currents in HEK293 cells (mutation screen); settings: saturating glutamate, -30 mV
# Procedure: (§9) All human NMDAR GluN1 (isoforms GluN1–4b[66]) and GluN2B constructs were cloned into the pRK5 expression vector (CMV promoter) with optimised Kozak sequences.
# (§10) Whole-cell currents (in HEK293 cells) and evoked NMDAR-mediated EPSCs (in cultured neurons) were recorded using an AxoPatch 200B amplifier (Molecular Devices, Sunnyvale, CA, USA). […] The experiments using Ca^2+ as the main external ion were performed using a ‘Ca^2+-solution’ containing (mM): 100 CaCl2, 5 HEPES adjusted to pH 7.4 with Ca(OH)2. […] Cells were voltage clamped at −60 mV.
# (§11) The rectification index (Ri) is measured from the current-voltage
# [17] = molecular target: T2, GluN1–GluN2B^N615I; assay: Glutamate-activated whole-cell currents in HEK293 cells; settings: 10 μM glycine
# Procedure: (§12) We used the alternatively spliced GluN1–4b isoform for co-expression with GluN2B.
# as §9, §10, §11
# [18] = system: GluN1-GluN2BA636P; assay: Glutamate-activated whole-cell currents in HEK293 cells (mutation screen); settings: up to 3 mM glutamate
# Procedure: as §9, §10, §11
# [19] = molecular target: T3, GluN1–GluN2B^WT; assay: Glutamate-activated whole-cell currents in HEK293 cells (concentration–response, current density, desensitisation)
# Procedure: as §12, §9, §10, §11
# [20] = molecular target: GluN1-GluN2B L825V (Homo sapiens, UniProt Q05586+Q13224, L825V); assay: Glutamate-activated whole-cell currents in HEK293 cells (mutation screen); settings: saturating glutamate, -30 mV
# Procedure: as §9, §10, §11
# [21] = molecular target: T1, GluN1–GluN2B^V618G; assay: Glutamate-activated whole-cell currents in HEK293 cells
# Procedure: as §12, §9, §10, §11
# [22] = system: GluN1-GluN2BC456Y; assay: Glutamate-activated whole-cell currents in HEK293 cells (mutation screen); settings: up to 3 mM glutamate
# Procedure: as §9, §10, §11
# [23] = molecular target: GluN1-GluN2B R682C (Homo sapiens, UniProt Q05586+Q13224, R682C); assay: as above; settings: saturating glutamate, -30 mV
# Procedure: as §9, §10, §11
# [24] = molecular target: GluN1–GluN2B^C461F (Homo sapiens, UniProt Q05586+Q13224, C461F); assay: Glutamate-activated whole-cell currents in HEK293 cells
# Procedure: as §12, §9, §10, §11
# [25] = molecular target: GluN1–GluN2B^P553L (Homo sapiens, UniProt Q05586+Q13224, P553L); assay: as above
# Procedure: as §12, §9, §10, §11
# [26] = after removal of 10 μM glutamate + 10 μM glycine, range of memantine concentrations
# [27] = Mg^2+ solution (100 mM), 10 μM glutamate and 10 μM glycine
# [28] = current in Mg^2+ solution as % of current in Krebs
# [29] = saturating glutamate, 10 μM glycine, −30 mV
# T1 sequence (Q13224 27-1484 V618G, other chains not shown): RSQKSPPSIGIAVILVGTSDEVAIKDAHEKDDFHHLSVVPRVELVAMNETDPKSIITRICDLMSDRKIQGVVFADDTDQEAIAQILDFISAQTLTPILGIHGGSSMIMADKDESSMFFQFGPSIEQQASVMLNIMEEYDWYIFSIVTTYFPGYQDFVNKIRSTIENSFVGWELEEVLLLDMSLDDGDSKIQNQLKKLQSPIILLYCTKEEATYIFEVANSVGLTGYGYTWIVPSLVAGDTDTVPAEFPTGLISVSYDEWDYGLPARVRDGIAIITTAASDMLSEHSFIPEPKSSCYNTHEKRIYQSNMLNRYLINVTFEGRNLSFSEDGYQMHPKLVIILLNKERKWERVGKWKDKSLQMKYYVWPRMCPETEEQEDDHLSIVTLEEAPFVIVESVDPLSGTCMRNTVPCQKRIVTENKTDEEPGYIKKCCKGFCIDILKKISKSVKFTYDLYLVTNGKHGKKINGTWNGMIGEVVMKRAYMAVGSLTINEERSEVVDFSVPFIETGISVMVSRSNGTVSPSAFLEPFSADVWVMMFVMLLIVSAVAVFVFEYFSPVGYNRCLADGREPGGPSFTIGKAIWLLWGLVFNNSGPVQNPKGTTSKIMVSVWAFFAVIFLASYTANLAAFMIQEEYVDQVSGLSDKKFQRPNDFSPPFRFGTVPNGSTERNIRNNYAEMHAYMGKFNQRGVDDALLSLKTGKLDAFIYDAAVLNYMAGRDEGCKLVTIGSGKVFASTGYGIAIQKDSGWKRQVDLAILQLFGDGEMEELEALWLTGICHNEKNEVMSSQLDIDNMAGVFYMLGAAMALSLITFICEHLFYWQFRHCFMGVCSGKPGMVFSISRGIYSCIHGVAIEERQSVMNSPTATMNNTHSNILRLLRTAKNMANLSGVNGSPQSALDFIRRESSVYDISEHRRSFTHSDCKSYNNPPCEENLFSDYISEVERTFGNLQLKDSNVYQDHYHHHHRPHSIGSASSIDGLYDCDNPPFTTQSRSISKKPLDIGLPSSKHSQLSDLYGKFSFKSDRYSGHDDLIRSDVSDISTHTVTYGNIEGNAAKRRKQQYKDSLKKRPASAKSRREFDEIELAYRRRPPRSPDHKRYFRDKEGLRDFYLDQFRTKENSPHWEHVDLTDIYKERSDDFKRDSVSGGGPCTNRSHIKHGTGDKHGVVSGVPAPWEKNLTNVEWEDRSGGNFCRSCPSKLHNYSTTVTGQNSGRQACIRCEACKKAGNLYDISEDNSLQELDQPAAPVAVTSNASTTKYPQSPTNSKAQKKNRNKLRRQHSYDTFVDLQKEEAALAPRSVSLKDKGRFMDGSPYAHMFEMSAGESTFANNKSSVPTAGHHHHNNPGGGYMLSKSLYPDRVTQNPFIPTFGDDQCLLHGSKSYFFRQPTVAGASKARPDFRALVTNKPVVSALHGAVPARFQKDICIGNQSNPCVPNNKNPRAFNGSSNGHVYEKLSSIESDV
# Chain of GluN1–GluN2B^C461F (Q13224 27-1484 C461F, other chains not shown): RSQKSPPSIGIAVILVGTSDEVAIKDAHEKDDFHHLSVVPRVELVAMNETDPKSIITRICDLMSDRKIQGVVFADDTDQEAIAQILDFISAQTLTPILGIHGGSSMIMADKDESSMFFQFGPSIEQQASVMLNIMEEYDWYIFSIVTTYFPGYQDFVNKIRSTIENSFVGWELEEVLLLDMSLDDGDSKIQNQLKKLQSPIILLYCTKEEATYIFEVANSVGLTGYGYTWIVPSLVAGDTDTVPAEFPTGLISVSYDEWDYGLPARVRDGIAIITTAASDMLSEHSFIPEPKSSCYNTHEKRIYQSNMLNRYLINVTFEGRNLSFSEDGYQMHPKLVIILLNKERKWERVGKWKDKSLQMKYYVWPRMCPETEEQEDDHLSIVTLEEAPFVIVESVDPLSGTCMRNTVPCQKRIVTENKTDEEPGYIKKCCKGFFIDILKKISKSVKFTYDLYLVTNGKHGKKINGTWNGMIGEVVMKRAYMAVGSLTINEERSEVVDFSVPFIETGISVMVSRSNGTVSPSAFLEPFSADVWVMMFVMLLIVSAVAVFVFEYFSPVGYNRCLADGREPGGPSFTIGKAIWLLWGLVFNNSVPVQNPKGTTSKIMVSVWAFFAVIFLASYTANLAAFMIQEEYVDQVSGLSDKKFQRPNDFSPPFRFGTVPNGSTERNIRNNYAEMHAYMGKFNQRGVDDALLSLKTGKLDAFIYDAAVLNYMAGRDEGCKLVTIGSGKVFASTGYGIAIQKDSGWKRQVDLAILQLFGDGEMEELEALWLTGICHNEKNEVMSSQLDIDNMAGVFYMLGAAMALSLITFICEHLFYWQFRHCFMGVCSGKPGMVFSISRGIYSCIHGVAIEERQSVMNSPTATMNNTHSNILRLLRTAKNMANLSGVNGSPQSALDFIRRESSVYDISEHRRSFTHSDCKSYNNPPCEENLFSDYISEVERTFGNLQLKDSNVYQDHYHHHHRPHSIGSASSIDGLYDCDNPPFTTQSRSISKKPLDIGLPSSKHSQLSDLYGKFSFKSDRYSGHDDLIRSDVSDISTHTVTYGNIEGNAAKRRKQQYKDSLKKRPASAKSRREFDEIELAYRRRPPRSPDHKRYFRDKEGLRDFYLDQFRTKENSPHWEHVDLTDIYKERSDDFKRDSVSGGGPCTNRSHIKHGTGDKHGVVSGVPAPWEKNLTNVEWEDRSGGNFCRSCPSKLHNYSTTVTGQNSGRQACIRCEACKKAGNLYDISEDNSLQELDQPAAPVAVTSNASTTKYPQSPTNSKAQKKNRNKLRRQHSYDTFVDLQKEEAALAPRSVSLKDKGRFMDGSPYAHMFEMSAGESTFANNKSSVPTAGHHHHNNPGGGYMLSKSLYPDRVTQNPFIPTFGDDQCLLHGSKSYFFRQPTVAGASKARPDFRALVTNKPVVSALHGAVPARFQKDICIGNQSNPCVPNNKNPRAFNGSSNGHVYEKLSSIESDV
# T3 sequence (Q13224 27-1484, other chains not shown): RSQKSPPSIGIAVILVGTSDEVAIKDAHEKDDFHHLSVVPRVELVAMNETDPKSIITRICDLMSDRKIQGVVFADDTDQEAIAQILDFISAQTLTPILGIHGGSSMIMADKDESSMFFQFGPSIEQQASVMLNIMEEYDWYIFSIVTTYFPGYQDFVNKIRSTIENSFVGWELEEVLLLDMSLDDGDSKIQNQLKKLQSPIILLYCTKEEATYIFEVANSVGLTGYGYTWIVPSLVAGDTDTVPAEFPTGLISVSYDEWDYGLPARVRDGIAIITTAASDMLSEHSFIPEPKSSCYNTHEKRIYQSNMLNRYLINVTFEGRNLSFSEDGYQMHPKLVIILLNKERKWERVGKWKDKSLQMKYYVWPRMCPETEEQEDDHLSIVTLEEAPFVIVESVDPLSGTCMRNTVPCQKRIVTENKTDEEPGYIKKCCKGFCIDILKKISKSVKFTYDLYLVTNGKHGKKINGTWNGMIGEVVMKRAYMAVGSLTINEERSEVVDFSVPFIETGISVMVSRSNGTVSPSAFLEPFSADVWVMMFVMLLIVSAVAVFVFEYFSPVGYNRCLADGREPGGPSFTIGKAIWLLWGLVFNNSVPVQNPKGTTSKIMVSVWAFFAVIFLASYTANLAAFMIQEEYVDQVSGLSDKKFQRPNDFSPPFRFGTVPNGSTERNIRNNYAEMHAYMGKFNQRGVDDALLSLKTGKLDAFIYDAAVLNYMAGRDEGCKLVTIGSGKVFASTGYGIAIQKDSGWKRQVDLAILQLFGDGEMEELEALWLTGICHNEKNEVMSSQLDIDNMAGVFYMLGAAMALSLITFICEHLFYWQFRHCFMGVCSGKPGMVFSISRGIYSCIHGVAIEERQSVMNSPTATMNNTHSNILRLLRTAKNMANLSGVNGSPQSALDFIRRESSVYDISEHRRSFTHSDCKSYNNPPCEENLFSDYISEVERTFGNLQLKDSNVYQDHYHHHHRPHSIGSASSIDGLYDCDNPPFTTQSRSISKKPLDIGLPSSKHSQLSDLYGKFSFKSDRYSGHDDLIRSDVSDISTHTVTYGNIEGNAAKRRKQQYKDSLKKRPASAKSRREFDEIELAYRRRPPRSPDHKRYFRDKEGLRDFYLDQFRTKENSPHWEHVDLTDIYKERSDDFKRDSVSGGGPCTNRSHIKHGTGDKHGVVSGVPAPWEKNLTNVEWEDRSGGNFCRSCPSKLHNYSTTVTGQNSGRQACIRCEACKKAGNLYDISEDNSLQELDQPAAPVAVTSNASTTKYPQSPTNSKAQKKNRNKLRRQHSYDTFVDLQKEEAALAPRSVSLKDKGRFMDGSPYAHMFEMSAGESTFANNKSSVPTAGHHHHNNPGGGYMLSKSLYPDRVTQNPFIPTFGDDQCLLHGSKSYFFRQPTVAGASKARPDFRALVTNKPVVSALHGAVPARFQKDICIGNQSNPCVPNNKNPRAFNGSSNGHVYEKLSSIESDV
structure (smiles),measurement,setting,value
"CC12CC3CC(C)(C1)CC(N)(C3)C2 [Memantine, memantine]",Effect of memantine on deactivation time constant (τ),[1]; [26],did not affect
same,"δMem, fraction of membrane potential sensed by memantine",[1]; trapping block model fit,0.42 ± 0.03
same,Effect of memantine on deactivation time constant (τ),[2]; [26],did not affect
same,"δMem, fraction of membrane potential sensed by memantine",[2]; trapping block model fit,0.42 ± 0.11
same,Effect of memantine on deactivation time constant (τ),[3]; [26],did not affect
same,"δMem, fraction of membrane potential sensed by memantine",[3],0.65 ± 0.026
same,"δMem, fraction of membrane potential sensed by memantine",[3]; listed as memantine,0.65 ± 0.03
same,Fraction charged at physiological pH,[4],99.95%
same,Inhibition of peak EPSC amplitude and charge transfer by memantine,[5],inhibited to a comparable extent
same,Inhibition of peak EPSC amplitude and charge transfer by memantine,[6],inhibited to a comparable extent
same,Inhibition of peak EPSC amplitude and charge transfer by memantine,[7],inhibited to a comparable extent
[Mg+2] [Mg^2+],Effect of external Mg^2+ on glutamate current (Mg2+ block),[8],unaffected by external Mg^2+
same,Effect of external Mg^2+ on glutamate current (Mg2+ block),[8]; listed as Mg2+,insensitive to Mg2+
same,"k-bi (0mV), Mg2+ unbinding rate constant to inside","[9]; predicted rate constant, 0 mV",25124 s⁻¹
same,"k-bo (0mV), Mg2+ unbinding rate constant to outside","[9]; predicted rate constant, 0 mV",24686 s⁻¹
same,pKd,"[9]; read-out: Dissociation constant for Mg^2+ binding at −60 mV, trapping block model, −60 mV",3.91
same,pIC50,"[9]; read-out: Mg^2+ IC50 (−60 mV), 10 μM glutamate and 10 μM glycine, −60 mV",3.85
same,"δMg, fraction of membrane potential sensed by Mg^2+",[9]; trapping block model fit,0.88 ± 0.04
same,Effect of external Mg^2+ on glutamate current (Mg2+ block),[10],unaffected by external Mg^2+
same,Effect of external Mg^2+ on glutamate current (Mg2+ block),[10]; listed as Mg2+,insensitive to Mg2+
same,Change in current at high Mg^2+ concentrations,[10]; 3–10 mM Mg^2+,small increase in current
same,IMg current density,[11]; [27],−10.28 ± 2.53 pA/pF
same,IMg/IKrebs,[11]; [28],58.4 ± 9.8% and 58.46 ± 9.8 %
same,IMg current density,[12]; [27],−0.09 ± 0.03 pA/pF
same,IMg/IKrebs,[12]; [28],1.63 ± 0.64%
same,IMg current density,[13]; [27],−0.07 ± 0.03 pA/pF
same,IMg/IKrebs,[13]; [28],0.91 ± 0.37%
O=C(CSc1nnc(NCc2ccccc2)s1)NCC1CCCCC1 [TCN213],Prolongation of EPSC decay,[14],40%
same,Reduction of peak EPSC amplitude,[14],10%
same,pIC50,[15],~4.52
N[C@@H](CCC(=O)O)C(=O)O [glutamate],Glutamate current density (maximal current/cell capacitance),[16],-30.31 ± 7.71 pA/pF
same,Hill slope (n) of glutamate concentration–response curve,[17],1.27 ± 0.13
same,Glutamate current,[18],No glutamate current was detected
same,Hill slope (n) of glutamate concentration–response curve,[19]; 10 μM glycine,1.45 ± 0.12
same,Glutamate current desensitisation decay τ,[19]; [29],21.17 ± 0.31 s
same,Glutamate current density (maximal current/cell capacitance),"[19]; saturating glutamate, -30 mV",-20.36 ± 4.54 pA/pF
same,Glutamate current density (maximal current/cell capacitance),[20],-19.06 ± 3.65 pA/pF
same,Hill slope (n) of glutamate concentration–response curve,[21]; 10 μM glycine,1.23 ± 0.12
same,Glutamate current density (maximal current/cell capacitance),"[21]; saturating glutamate, -30 mV",-17.55 ± 3.35 pA/pF
same,Glutamate current,[22],No glutamate current was detected
same,Glutamate current density (maximal current/cell capacitance),[23],-15.34 ± 2.56 pA/pF
same,Hill slope (n) of glutamate concentration–response curve,[24]; 10 μM glycine,1.44 ± 0.03
same,Glutamate current density (maximal current/cell capacitance),"[24]; saturating glutamate, -30 mV",-6.49 ± 3.94 pA/pF
same,Reduction of glutamate potency compared to wild-type,[24]; vs GluN1–GluN2B WT,71 fold
same,Hill slope (n) of glutamate concentration–response curve,[25]; 10 μM glycine,0.89 ± 0.05
same,Glutamate current desensitisation decay τ,[25]; [29],420.3 ± 30.1 ms
same,Glutamate current density (maximal current/cell capacitance),"[25]; saturating glutamate, -30 mV",-15.31 ± 3.70 pA/pF
same,Reduction of glutamate potency compared to wild-type,[25]; vs GluN1–GluN2B WT,1.7 fold
